Source: US9187454B2, “Inhibitors of kinases and cancer stem cells, and methods of preparation and use thereof” (Boston Biomedical, Inc., priority 2013, dated 2015)

Columns and labels:
Assay type in all cases: cell-based
[1] = system: FaDu CSC; assay: Cancer stem cell sphere culture viability, CellTiter-Glo, FaDu CSC; details: CSC cultures, viability 72 hours after drug treatment
Protocol: (§1) Cancer Stem Cell (CSC) cultures were initiated from heterogenous cancer cell lines. Briefly, cancer cell cultures were trypsonized and collected in centrifuge tubes. Cells were then pelleted by centrifugation, media removed, and cells resuspended in phosphate buffered saline (PBS). Cells were then pelleted again, and the process repeated for a total of three PBS washes. Cells were subsequently resuspended in CSC media (DMEMF-12, 1×B27 supplement (Life Technologies), 0.4% BSA, 10 ng/ml EGF, 10 ng/ml FGF). Following resuspension, cells were passed through a 40 uM cell strainer to obtain a single cell suspension. Cells were then plated in 100 mm dishes coated with 0.5% Agar to prevent cell attachment. Cells were then allowed to grow for 5-7 days to allow CSC sphere formation.
(§2) CSC spheres that were a minimum of passage 2 were dissociated with Accutase and filtered through a 40 uM cell strainer before counting to remove any cell clumps. CSCs were then plated at 1000 cells per well in black-walled 96 well plates that have been coated in 0.5% Agar in 100 uL per well of CSC media. CSCs were then allowed to grow for 72 hours. CSC cultures were then treated with a dose curve of the indicated compounds in triplicate wells. CSC cultures were harvested 72 hours after drug treatment and viability determined using CellTiter-Glo assay (Promega) as directed by the manufacturer.

[2] = system: FaDu; assay: Bulk cancer cell viability, CellTiter-Glo, FaDu; details: viability 72 hours after drug treatment
Protocol: (§3) Cancer cells were plated at 5000 cells per well in black-walled 96 well plates in 100 uL per well of complete media (DMEM, 10% FBS, 1% penicillin/streptomycin). Cells were treated with each of the compounds 24 hours after plating with a dose curve of the indicated compounds in triplicate wells. Cells were harvested 72 hours after drug treatment and viability was determined using CellTiter-Glo assay (Promega) as directed by the manufacturer.

[3] = system: ACHN; assay: Bulk cancer cell viability, CellTiter-Glo, ACHN; details: viability 72 hours after drug treatment
Protocol: as §3

[4] = system: A549; assay: Bulk cancer cell viability, CellTiter-Glo, A549; details: Homo sapiens, viability 72 hours after drug treatment
Protocol: as §3

[5] = system: A549 CSC; assay: Cancer stem cell sphere culture viability, CellTiter-Glo, A549 CSC; details: Homo sapiens, CSC cultures, viability 72 hours after drug treatment
Protocol: as §1, §2

Compound | IC50 ([1]; Homo sapiens, FaDu, 72 h) | IC50 ([2]; Homo sapiens, FaDu, 72 h) | other results
Cc1[nH]c(/C=C2\C(=O)Nc3cc(-c4csc(-c5ccccc5)n4)ccc32)c(C)c1C(=O)N1CCN(C)CC1 [Compound 234] | – | 6.29 µM | –
CCN(CC)CCNC(=O)c1c(C)[nH]c(/C=C2\C(=O)Nc3c2cccc3-c2csc(-c3ccccc3)n2)c1C [Compound 235] | 1.4 µM | 5.3 µM | –
CCN(CC)CCNC(=O)c1c(C)[nH]c(/C=C2\C(=O)Nc3cc(-c4ccc(-c5ccccc5)s4)ccc32)c1C [Compound 244] | – | 87.6 µM | –
CCN(CC)CCNC(=O)c1c(C)[nH]c(/C=C2\C(=O)Nc3ccc(-c4ncc(-c5ccccc5)o4)cc32)c1C [Compound 247] | – | – | IC50 ([3]; Homo sapiens, ACHN, 72 h): 63.3 µM
CCN(CC)CCNC(=O)c1c(C)[nH]c(/C=C2\C(=O)Nc3ccc(-c4nnc(-c5ccccc5)s4)cc32)c1C [Compound 250] | – | 14.1 µM | IC50 [3]: 83.9 µM
CCN(CC)CCNC(=O)c1ccc(/C=C2\C(=O)Nc3ccc(-c4csc(-c5ccccc5)n4)cc32)[nH]c1=O [Compound 263] | 8.16 µM | 2.41 µM | –
CN1CCN(C(=O)c2ccc(/C=C3\C(=O)Nc4ccc(-c5csc(-c6ccccc6)n5)cc43)[nH]c2=O)CC1 [Compound 264] | – | 99.8 µM | –
O=C1Nc2ccc(-c3csc(-c4ccccc4)n3)cc2/C1=C/c1ccc(C(=O)NCCN2CCOCC2)c(=O)[nH]1 [Compound 265] | – | 62.7 µM | –
Cc1[nH]c(/C=C2\C(=O)Nc3cc(-c4csc(-c5ccccc5)n4)ccc32)c(C)c1C(=O)N1CCOCC1 [Compound 268] | – | 64.8 µM | –
CCN(CC)CCNC(=O)c1c(C)[nH]c(/C=C2\C(=O)Nc3ccc(C4=CS/C(=C\c5ccccc5)N4C)cc32)c1C [Compound 283] | 2.17 µM | 5.35 µM | –
CCN(CC)CCNC(=O)c1c(C)[nH]c(/C=C2\C(=O)Nc3ccc(-c4cn(-c5ccccc5)nc4C)cc32)c1C [Compound 287] | – | – | IC50 [1]: 1.31 µM; IC50 [2]: 5.79 µM
CCN(CC)CCNC(=O)c1c(C)[nH]c(/C=C2\C(=O)Nc3ccc(-c4nnc(-c5ccccc5)s4)cc32)c1C [Compound 303] | – | – | IC50 [1]: 12.6 µM; IC50 [2]: 7.98 µM; IC50 [3]: 5.67 µM
O=C1Nc2ccc(-c3csc(-c4ccncc4)n3)cc2/C1=C/c1cc2ccccc2[nH]1 [Compound 352] | – | 67.8 µM | –

More lines, main results first:

IC50 ([1]; Homo sapiens, FaDu, 72 h) | IC50 ([2]; Homo sapiens, FaDu, 72 h) | Compound | other results
0.66 µM | 5.02 µM | CCN(CC)CCNC(=O)c1c(C)[nH]c(/C=C2\C(=O)Nc3cc(-c4csc(-c5ccccc5)n4)ccc32)c1C [Compound 233] | –
2.53 µM | 11.3 µM | Cc1[nH]c(/C=C2\C(=O)Nc3c2cccc3-c2csc(-c3ccccc3)n2)c(C)c1C(=O)N1CCN(C)CC1 [Compound 236] | –
0.65 µM | 1.51 µM | CCN(CC)CCNC(=O)c1c(C)[nH]c(/C=C2\C(=O)Nc3ccc(-c4csc(-c5ccccc5)n4)nc32)c1C [Compound 261] | IC50 ([3]; Homo sapiens, ACHN, 72 h): 1.75 µM; IC50 [4]: 1.12 µM
1.1 µM | 3.62 µM | Cc1[nH]c(/C=C2\C(=O)Nc3ccc(-c4csc(-c5ccccc5)n4)nc32)c(C)c1C(=O)NCCN1CCCC1 [Compound 262] | IC50 [5]: 2.01 µM; IC50 ([3]; Homo sapiens, ACHN, 72 h): 2.83 µM; IC50 [4]: 3.15 µM
– | 22.3 µM | CCN(CC)CCNC(=O)c1c(C)[nH]c(/C=C2\C(=O)Nc3ccc(C4CCN(C5CCN(C(C)=O)CC5)CC4)cc32)c1C [Compound 272] | –
9.05 µM | 6.15 µM | CCN(CC)CCNC(=O)c1c(C)[nH]c(/C=C2\C(=O)Nc3ccc(-c4cnn(C5CCOCC5)c4)cc32)c1C [Compound 273] | IC50 [4]: 27.3 µM
40.8 µM | 14.3 µM | CCN(CC)CCNC(=O)c1c(C)[nH]c(/C=C2\C(=O)Nc3ccc(-c4ccc(-c5cccnc5)s4)cc32)c1C [Compound 298] | –
– | 64.4 µM | Cc1[nH]c(/C=C2\C(=O)Nc3ccc(-c4csc(-c5ccncc5)n4)cc32)c(C)c1CCC(=O)O [Compound 348] | –
– | 56 µM | Cc1cc(C(=O)NCCO)[nH]c1/C=C1\C(=O)Nc2ccc(-c3csc(-c4ccccc4)n3)cc21 [Compound 370] | –
